What is called IC50 is the concentration at which inhibition is half-maximal. Low readings indicate greater potency in that assay, high ones weaker potency in that assay. As usually defined, the half-life is how long it takes for the measured level to halve. A high value points to slow decline.

The record followed here is ChEMBL document CHEMBL2321873, “1-(4-Phenylpiperazin-1-yl)-2-(1H-pyrazol-1-yl)ethanones as novel CCR1 antagonists” (Bioorg Med Chem Lett, 2013).

One data set relates to Cytomegalovirus. Put plainly: Antagonist activity at CMV US28 assessed as inhibition of chemotaxis at 10 uM.
For data set [1], the target named is T1, C-C chemokine receptor type 10 (Homo sapiens) (UniProt P46092).
T1 sequence (whole entry): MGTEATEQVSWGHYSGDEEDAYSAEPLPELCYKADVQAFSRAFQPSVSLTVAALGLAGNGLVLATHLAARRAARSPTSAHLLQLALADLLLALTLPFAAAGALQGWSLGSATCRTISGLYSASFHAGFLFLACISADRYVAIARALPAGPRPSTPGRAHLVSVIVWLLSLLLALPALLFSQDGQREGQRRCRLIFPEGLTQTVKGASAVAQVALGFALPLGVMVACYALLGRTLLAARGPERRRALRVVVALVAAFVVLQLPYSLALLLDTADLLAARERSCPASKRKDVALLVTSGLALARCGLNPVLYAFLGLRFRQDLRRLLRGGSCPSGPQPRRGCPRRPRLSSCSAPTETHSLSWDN
Nature of the data set: Antagonist activity at CCR10 (unknown origin) assessed as inhibition of chemotaxis at 10 uM.

Data set [2] deals with T2, Atypical chemokine receptor 1 (Homo sapiens) (UniProt Q16570).
T2 sequence (whole entry): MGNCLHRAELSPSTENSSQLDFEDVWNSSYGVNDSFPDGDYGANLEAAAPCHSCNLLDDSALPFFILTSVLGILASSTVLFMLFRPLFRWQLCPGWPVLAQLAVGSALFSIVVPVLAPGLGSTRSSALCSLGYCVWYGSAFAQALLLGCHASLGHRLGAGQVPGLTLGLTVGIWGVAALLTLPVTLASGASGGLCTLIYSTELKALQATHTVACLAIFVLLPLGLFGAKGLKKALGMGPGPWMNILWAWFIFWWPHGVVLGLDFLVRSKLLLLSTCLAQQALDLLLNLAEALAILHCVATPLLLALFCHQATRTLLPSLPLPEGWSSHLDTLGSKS
Nature of the data set: Antagonist activity at Duffy (unknown origin) assessed as inhibition of calcium flux at 10 uM. Type of data set: functional. In general terms: A change in cytosolic calcium serves as a functional read-out for many receptors and channels.

In data set [3] the target is T3, CX3C chemokine receptor 1 (Homo sapiens) (UniProt P49238).
T3 sequence (whole entry): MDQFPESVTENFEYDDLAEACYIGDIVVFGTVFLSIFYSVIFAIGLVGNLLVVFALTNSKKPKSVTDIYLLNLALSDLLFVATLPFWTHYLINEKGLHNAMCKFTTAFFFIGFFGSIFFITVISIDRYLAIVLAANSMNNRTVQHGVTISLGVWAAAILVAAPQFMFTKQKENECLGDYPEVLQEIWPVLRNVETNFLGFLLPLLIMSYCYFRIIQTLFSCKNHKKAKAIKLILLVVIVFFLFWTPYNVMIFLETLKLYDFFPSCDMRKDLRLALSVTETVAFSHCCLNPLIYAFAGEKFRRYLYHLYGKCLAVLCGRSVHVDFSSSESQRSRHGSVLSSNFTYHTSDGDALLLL
Put plainly: Antagonist activity at CX3CR1 (unknown origin) assessed as inhibition of calcium flux at 10 uM. Format: functional.

The target of data set [4] is T1, C-C chemokine receptor type 10 (Homo sapiens). Put plainly: Antagonist activity at CCR10 (unknown origin) assessed as inhibition of calcium flux at 10 uM. Format: functional.
Data set [5] has as its target T4, C-C chemokine receptor type 7 (Homo sapiens) (UniProt P32248).
T4 sequence (whole entry): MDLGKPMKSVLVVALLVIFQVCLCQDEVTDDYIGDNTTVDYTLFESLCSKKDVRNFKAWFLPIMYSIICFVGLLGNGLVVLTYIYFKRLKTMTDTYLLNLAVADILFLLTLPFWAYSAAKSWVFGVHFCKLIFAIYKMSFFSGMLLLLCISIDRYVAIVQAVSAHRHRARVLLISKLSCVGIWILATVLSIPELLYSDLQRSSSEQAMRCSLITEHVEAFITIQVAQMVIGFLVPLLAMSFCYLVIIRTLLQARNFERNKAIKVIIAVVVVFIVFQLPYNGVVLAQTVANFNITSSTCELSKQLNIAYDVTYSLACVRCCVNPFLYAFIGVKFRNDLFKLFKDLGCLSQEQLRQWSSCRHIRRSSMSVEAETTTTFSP
Put plainly: Antagonist activity at CCR7 (unknown origin) assessed as inhibition of calcium flux at 10 uM. Type of data set: functional.

The target of data set [6] is T5, C-C chemokine receptor type 4 (Homo sapiens) (UniProt P51679).
T5 sequence (whole entry): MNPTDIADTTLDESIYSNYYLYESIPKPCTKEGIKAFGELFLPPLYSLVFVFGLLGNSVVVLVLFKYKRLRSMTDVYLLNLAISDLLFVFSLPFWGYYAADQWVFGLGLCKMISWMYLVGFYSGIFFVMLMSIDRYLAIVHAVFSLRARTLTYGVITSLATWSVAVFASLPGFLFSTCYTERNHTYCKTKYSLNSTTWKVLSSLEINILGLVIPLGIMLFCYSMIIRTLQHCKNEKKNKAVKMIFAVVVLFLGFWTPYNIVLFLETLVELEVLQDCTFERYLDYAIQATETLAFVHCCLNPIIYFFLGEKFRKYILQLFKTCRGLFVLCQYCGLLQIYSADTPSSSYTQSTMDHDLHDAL
Nature of the data set: Antagonist activity at CCR4 (unknown origin) assessed as inhibition of calcium flux at 10 uM. Type of data set: functional.

Data set [7] addresses C-C chemokine receptor type 2 (Homo sapiens) (UniProt P41597). Nature of the data set: Antagonist activity at CCR2 (unknown origin) assessed as inhibition of calcium flux at 10 uM. Type of data set: functional.
Data set [8] addresses T2, Atypical chemokine receptor 1 (Homo sapiens). Nature of the data set: Binding affinity to Duffy (unknown origin) at 10 uM by radioligand displacement assay. For orientation: Displacement assays read how much labelled ligand stays bound in the presence of the test substance.
The target of data set [9] is T6, C-X-C chemokine receptor type 3 (Homo sapiens) (UniProt P49682).
T6 sequence (whole entry): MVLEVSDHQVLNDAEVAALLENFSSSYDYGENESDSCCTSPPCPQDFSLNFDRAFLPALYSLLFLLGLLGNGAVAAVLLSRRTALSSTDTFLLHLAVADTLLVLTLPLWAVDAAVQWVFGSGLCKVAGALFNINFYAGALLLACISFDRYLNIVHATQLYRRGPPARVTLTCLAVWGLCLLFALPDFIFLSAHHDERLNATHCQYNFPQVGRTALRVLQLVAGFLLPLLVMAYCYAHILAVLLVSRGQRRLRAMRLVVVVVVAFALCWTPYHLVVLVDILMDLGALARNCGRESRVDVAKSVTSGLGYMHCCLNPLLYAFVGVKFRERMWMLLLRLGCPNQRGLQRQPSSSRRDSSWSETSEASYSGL
Nature of the data set: Binding affinity to CXCR3 (unknown origin) at 10 uM by radioligand displacement assay.

In data set [10] the target is T1, C-C chemokine receptor type 10 (Homo sapiens). Put plainly: Binding affinity to CCR10 (unknown origin) at 10 uM by radioligand displacement assay.
The target in data set [11] is T5, C-C chemokine receptor type 4 (Homo sapiens). Nature of the data set: Binding affinity to CCR4 (unknown origin) at 10 uM by radioligand displacement assay.
The target in the next data set is Cytochrome P450 1A2 (Homo sapiens, UniProt P05177). Nature of the data set: Competitive inhibition of CYP1A2 (unknown origin). Format: ADME.
The test system of the next data set is Rattus norvegicus. Put plainly: Toxicity in Sprague-Dawley rat assessed as effect on blood chemistry at 70 to 360 mg/kg, po after 7 days. The following applies: in vivo, 168 h. Type of data set: organism-based. The arrangement: dose 70-360 mg/kg, route oral.
Data set [12] can be described thus: Half life in Sprague-Dawley rat at 1 mg/kg, iv. Format: ADME, organism-based. Also noted: dose 1 mg/kg, route intravenous. The following applies: in vivo.
Data set [13] has as its target C-C chemokine receptor type 1 (Mus musculus, UniProt P51675). Put plainly: Displacement of [125I]-CCL3/MIP-1alpha from CCR1 in mouse WEHI274.1 cells. Type of data set: cell-based.

Active and inactive are the calls of the source. The calls are words filed in the database; no cut-off is given here.

Sequence of C-C chemokine receptor type 1 (P51675 whole entry): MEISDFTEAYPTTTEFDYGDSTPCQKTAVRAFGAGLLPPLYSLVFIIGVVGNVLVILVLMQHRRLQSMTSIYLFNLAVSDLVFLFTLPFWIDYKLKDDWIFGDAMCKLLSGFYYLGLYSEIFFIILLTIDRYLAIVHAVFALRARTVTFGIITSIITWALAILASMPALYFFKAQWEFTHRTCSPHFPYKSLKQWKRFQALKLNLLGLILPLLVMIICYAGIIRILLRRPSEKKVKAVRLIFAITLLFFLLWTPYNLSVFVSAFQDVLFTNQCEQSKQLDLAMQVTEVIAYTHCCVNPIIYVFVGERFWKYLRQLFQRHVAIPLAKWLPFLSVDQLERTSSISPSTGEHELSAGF
Sequence of C-C chemokine receptor type 2 (Homo sapiens) (P41597 whole entry, looked up): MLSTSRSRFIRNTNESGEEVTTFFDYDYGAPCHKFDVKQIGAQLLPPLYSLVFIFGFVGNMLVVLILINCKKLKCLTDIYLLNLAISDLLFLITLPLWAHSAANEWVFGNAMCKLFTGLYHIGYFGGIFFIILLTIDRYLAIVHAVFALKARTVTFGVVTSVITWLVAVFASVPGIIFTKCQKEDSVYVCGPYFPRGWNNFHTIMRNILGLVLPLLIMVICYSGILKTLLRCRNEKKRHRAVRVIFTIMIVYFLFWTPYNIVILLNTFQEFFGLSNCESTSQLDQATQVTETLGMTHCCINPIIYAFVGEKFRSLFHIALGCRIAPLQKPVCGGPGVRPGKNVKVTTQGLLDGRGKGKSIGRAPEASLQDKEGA
Sequence of Cytochrome P450 1A2 (P05177 whole entry): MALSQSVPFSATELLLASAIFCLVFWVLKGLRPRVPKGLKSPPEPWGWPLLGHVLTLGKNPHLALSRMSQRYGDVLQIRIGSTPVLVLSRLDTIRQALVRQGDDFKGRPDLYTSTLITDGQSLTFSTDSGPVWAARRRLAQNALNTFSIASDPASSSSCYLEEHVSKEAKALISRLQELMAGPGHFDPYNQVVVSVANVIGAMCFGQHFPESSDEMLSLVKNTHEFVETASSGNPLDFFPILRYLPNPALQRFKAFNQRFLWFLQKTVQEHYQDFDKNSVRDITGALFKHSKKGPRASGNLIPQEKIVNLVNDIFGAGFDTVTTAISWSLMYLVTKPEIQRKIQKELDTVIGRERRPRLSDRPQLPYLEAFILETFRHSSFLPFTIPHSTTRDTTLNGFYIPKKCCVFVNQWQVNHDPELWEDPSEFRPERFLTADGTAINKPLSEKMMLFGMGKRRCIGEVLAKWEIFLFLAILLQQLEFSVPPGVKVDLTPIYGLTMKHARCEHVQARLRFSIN

As to `COc1cc(N2CCN(C(=O)Cn3nc(C(F)(F)F)c(Cl)c3C)CC2)ccc1Cl`, the inhibition result (in the data set with Cytomegalovirus; in [1]; in data set [2]; in data set [3]; in data set [4]; in [5]) was “inactive” throughout. The inhibition entry in [6] and in data set [7] was “inactive” in each case. Moreover, the outcome in [8], in [9], in data set [10] and in [11] was inactive. The values for the IC50 (at Cytochrome P450 1A2; in data set [13]) were above 10 µM and 3 µM, respectively. Further, the Activity result with Rattus norvegicus is reported as “Non-toxic”. The half-life in [12] was 2.2 h.
